This note sets out measurements from patent publication US6716880B2, “Compounds for the treatment of estrogen-dependent illnesses and methods for making and using the same” (Duquesne University of the Holy Ghost, priority 1998, dated 2004).

The Ki is the equilibrium dissociation constant of an inhibitor or competing ligand from its target. For orientation: inhibition means the share of the control response that was lost under treatment. A high value points to a response far below the control.

Molecules are shown by their SMILES.

One assay deals with T1, estrone sulfatase (Rattus norvegicus, UniProt P15589).
T1 construct: using rat liver microcosm as a source of sulfatase; from tissue; host or cells: rat liver microsomal fraction (juvenile female Sprague-Dawley rats)
T1 sequence (P15589 20-577): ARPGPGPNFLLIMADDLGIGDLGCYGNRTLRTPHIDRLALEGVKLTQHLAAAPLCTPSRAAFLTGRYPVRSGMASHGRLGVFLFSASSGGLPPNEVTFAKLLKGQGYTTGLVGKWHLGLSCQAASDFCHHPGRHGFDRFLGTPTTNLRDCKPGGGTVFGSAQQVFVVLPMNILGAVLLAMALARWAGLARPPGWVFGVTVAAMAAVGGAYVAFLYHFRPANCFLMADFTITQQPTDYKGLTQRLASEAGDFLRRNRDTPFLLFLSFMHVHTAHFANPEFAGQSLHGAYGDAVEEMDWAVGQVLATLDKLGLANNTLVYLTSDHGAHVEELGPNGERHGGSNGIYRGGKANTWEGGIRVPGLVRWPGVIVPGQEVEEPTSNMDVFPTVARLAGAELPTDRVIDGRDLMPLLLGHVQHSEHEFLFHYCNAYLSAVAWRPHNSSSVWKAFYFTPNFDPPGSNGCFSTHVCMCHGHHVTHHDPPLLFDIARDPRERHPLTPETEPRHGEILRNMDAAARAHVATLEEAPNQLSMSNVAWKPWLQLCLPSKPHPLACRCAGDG
The assay can be described thus: Rat liver microsome sulfatase assay (Lineweaver-Burk). It counts as biochemical. As to conditions: rat liver microsomes. In general terms: Liver microsomes are a subcellular fraction often used to study metabolism.

Assay [1] has as its target T2, estrone sulfatase in MDA-MB-231 breast cancer cells (Homo sapiens, UniProt P08842).
T2 construct: using intact monolayers of MDA-MB-231 breast cancer cells; endogenous in cells; host or cells: MDA-MB-231 breast cancer cells
T2 sequence (P08842 22-583): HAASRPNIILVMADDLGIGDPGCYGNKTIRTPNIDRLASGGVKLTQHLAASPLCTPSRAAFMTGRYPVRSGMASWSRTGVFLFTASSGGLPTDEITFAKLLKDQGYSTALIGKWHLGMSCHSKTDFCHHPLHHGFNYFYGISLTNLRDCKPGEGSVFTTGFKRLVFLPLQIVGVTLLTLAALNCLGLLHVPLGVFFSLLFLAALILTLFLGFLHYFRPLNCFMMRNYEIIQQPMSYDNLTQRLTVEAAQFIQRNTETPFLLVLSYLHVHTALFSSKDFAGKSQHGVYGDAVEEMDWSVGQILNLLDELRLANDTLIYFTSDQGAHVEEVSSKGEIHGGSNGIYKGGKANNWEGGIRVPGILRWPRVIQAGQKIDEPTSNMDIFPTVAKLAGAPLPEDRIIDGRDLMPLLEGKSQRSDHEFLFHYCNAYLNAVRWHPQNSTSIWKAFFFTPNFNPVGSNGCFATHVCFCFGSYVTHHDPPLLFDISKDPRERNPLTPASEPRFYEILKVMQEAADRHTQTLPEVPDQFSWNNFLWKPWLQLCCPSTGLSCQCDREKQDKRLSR
The assay can be described thus: Intact breast cancer cell estrone sulfatase assay. The class given is cell-based. To be noted: intact MDA-MB-231 cells, 18 h incubation. The protocol: The ability of the compound prepared according to Example 1 to block hydrolysis of estrone sulfate was examined using intact monolayers of MDA-MB-231 breast cancer cells.
MDA-MB-231 cells were plated into 6-well dishes at approximately 1×10^6 cells/well in growth medium and incubated at 37° C. overnight to facilitate adherence to the plates. The growth medium contained 0.2% (v/v) sodium bicarbonate, 5% heat-inactivated fetal-calf serum, […] gentamicin, and 1% (v/v) antibiotic/antimycotic. Following incubation, growth medium was removed and replaced with growth medium containing ^3H-estrone sulfate (100,000 dpm/ml), with or without the compound of Example 1 (10 μM). Cells were incubated for 18 h, then plates were cooled for 15 min. Medium from each well (500 μL) was aliquoted into 16×100 mm tubes. Three mls of toluene were added to each tube for extraction of unconjugated steroids. The tubes were vortexed for 1 min and then centrifuged at 2500×g for 5 min to separate the aqueous and organic phases. One mL of the organic phase (containing radiolabeled unconjugated steroids) was transferred to scintillation vials and 5 ml scintillation cocktail was added. Total radioactivity was counted using a Packard Tri-carb scintillation counter at 50% efficiency for ^3H. All extractions were performed in duplicate and all treatments were run in triplicate. […]

In the case of `CC/C(=C(/c1ccc(OCCN(C)C)cc1)c1ccc(OS(N)(=O)=O)cc1)c1ccccc1` [tamoxifen sulfamate, (Z)-4-Hydroxytamoxifen Sulfamate], the Ki at estrone sulfatase (double reciprocal plot, fixed inhibitor concentration 10 μM) is roughly 17 µM. For the same compound, the type of inhibition result on estrone sulfatase (maximum velocity unchanged, Km increased) was “competitive inhibitor”. The compound further had an inhibition at 10 µM in assay [1] of roughly 50%.
